The assay relates to RAW264.7. As to the kind of experiment: Antiinflammatory activity against IFN-gamma, TNF-alpha and IL-1-stimulated mouse RAW264.7 cells assessed as inhibition of cellular iNOS synthesis. Type of assay: functional, cell-based.

As a reminder, the IC50 is the concentration that gives 50% inhibition.

As for `C[C@H]1[C@H](C)CC[C@]2(C(=O)O)CC[C@]3(C)C(=CC[C@@H]4[C@@]5(C)C=CC(=O)C(C)(C)[C@@H]5CC[C@]43C)[C@H]12`, the IC50 worked out at 6 µM. Turning to `C[C@H]1[C@H](C)CC[C@]2(C(=O)O)CC[C@]3(C)C(=CC(=O)[C@@H]4[C@@]5(C)C=CC(=O)C(C)(C)[C@@H]5CC[C@]43C)[C@H]12`, the IC50 came to 17.6 µM. In the case of `CC1(C)CC[C@]2(C(=O)O)CC[C@]3(C)[C@H](C(=O)C=C4[C@@]5(C)C=CC(=O)C(C)(C)[C@@H]5CC[C@]43C)[C@@H]2C1`, the half-maximal inhibitory concentration (IC50) stood at 0.2 µM.

The record behind these values is ChEMBL document CHEMBL1765043, “New synthetic triterpenoids: potent agents for prevention and treatment of tissue injury caused by inflammatory and oxidative stress” (J Nat Prod, 2011).
